Reference: patent publication US10005767B2, “Compositions and methods for inhibition of the JAK pathway” (Rigel Pharmaceuticals, Inc., priority 2009, dated 2018)

Tested on: human primary T-cells, IL-2 stimulated proliferation (JAK-1 and JAK-3 dependent; reported as JAK3 activity)
Assay: Human primary T-cell proliferation stimulated by IL-2 (Example 3)
Assay type: cell-based
Conditions: tested under conditions described in Example 3 (IL-2 stimulated human primary T-cell proliferation); read-out: ability to inhibit JAK3 activity, IC50 range (Table V)
Excerpt: The activity of the compounds described herein can further be characterized by assaying the effect of the 2,4-pyrimidinediamine compounds described herein on the proliferative response of primary human T-cells. In this assay, primary human T-cells derived from peripheral blood and pre-activated through stimulation of the T-cell receptor and CD28, proliferate in culture in response to the cytokine Interleukin-2 (IL-2). This proliferative response is dependent on the activation of JAK1 and JAK3 tyrosine kinases, which phosphorylate and activate the transcription factor Stat-5. The primary human T-cells are incubated with the 2,4-pyrimidinediamine compounds in the presence of IL-2 for 72 hours, and at the assay endpoint intracellular ATP concentrations are measured to assess cell viability. A reduction in cell proliferation compared to control conditions is indicative of inhibition of the JAK kinase pathway.
Primary human T-cells derived from peripheral blood and pre-activated through stimulation of the T-cell receptor and CD28, proliferate in vitro in response to the cytokine Interleukin-2 (IL-2). This proliferative response is dependent on the activation of JAK-1 and JAK-3 tyrosine kinases, which phosphorylate and activate the transcription factor Stat-5.
Human primary T cells were prepared as follows. […] The lymphocytes at the serum: ficoll interface were recovered and washed twice with 5 volumes of PBS. […] The primary T-cells were stimulated for 3-4 days, then transferred to a fresh flask and maintained in RPMI with 10% FBS and 40 U/mL IL-2.
The day prior to the assay set up, primary T-cells were centrifuged and resuspended in fresh RPMI with 10% FBS but without IL-2 and starved overnight. For the assay, the primary T-cells were centrifuged and resuspended Yssel's medium at 2×10^6 cells/mL. 50 μL of cell suspension containing 80 U/mL IL-2 was added to each well of a flat bottom 96 well black plate. For the unstimulated control, IL-2 was omitted from the last column on the plate. […] 50 μL of 2× compound was added per well in duplicate and the cells were allowed to proliferate for 72 hours at 37° C.
Proliferation was measured using CellTiter-Glo® Luminescent Cell Viability Assay (Promega), which determines the number of viable cells in culture based on quantitation of the ATP present, as an indicator of metabolically active cells. The substrate was thawed and allowed to come to ambient temperature. After mixing the Cell Titer-Glo reagent and diluent together, 100 μL was added to each well. The plates were mixed on an orbital shaker for two minutes to induce lysis and incubated at ambient temperature for an additional ten minutes to allow the signal to equilibrate.
The compound designations in Table V are consistent with those of Tables I-IV above.

| SMILES | IC50 [nM] |
| --- | --- |
| Cc1cnc(Nc2cccc(S(N)(=O)=O)c2)nc1Nc1ccc2c(c1)oc(=O)n2C [Compound I-63, N2-((3-aminosulfonyl)phenyl)-N4-(3-methyl-2-oxo-2,3-dihydrobenzo[d]oxazol-6-yl)-5-methylpyrimidine-2,4-diamine] | < 500 |
| Cc1cnc(Nc2ccc(S(N)(=O)=O)cc2)nc1Nc1ccc2c(c1)oc(=O)n2C [Compound I-64, N2-((4-aminosulfonyl)phenyl)-N4-(3-methyl-2-oxo-2,3-dihydrobenzo[d]oxazol-6-yl)-5-methylpyrimidine-2,4-diamine] | > 10000 |
| Cc1cnc(Nc2cccc(S(C)(=O)=O)c2)nc1Nc1ccc2c(c1)oc(=O)n2C [Compound I-65, N2-((3-methylsulfonyl)phenyl)-N4-(3-methyl-2-oxo-2,3-dihydrobenzo[d]oxazol-6-yl)-5-methylpyrimidine-2,4-diamine] | < 500 |
| Cc1cnc(Nc2ccc(S(C)(=O)=O)cc2)nc1Nc1ccc2c(c1)oc(=O)n2C [Compound I-66, N2-((4-methylsulfonyl)phenyl)-N4-(3-methyl-2-oxo-2,3-dihydrobenzo[d]oxazol-6-yl)-5-methylpyrimidine-2,4-diamine] | < 500 |
| Cc1cnc(Nc2cccc(S(N)(=O)=O)c2)nc1Nc1ccc2oc(=O)n(C)c2c1 [Compound I-67, N2-((3-aminosulfonyl)phenyl)-N4-(3-methyl-2-oxo-2,3-dihydrobenzo[d]oxazol-5-yl)-5-methylpyrimidine-2,4-diamine] | < 500 |
| Cc1cnc(Nc2ccc(S(N)(=O)=O)cc2)nc1Nc1ccc2oc(=O)n(C)c2c1 [Compound I-68, N2-((4-aminosulfonyl)phenyl)-N4-(3-methyl-2-oxo-2,3-dihydrobenzo[d]oxazol-5-yl)-5-methylpyrimidine-2,4-diamine] | < 500 |
| Cc1cnc(Nc2cccc(S(C)(=O)=O)c2)nc1Nc1ccc2oc(=O)n(C)c2c1 [Compound I-69, N2-((3-methylsulfonyl)phenyl)-N4-(3-methyl-2-oxo-2,3-dihydrobenzo[d]oxazol-5-yl)-5-methylpyrimidine-2,4-diamine] | < 500 |
| Cc1cnc(Nc2ccc(S(C)(=O)=O)cc2)nc1Nc1ccc2oc(=O)n(C)c2c1 [Compound I-70, N2-((4-methylsulfonyl)phenyl)-N4-(3-methyl-2-oxo-2,3-dihydrobenzo[d]oxazol-5-yl)-5-methylpyrimidine-2,4-diamine] | < 500 |
| Cc1cnc(Nc2cccc(NS(C)(=O)=O)c2)nc1Nc1ccc2oc(=O)n(C)c2c1 [Compound I-71, N2-((3-methylsulfonylamino)phenyl)-N4-(3-methyl-2-oxo-2,3-dihydrobenzo[d]oxazol-5-yl)-5-methylpyrimidine-2,4-diamine] | < 500 |
| Cc1cnc(Nc2ccc(NS(C)(=O)=O)cc2)nc1Nc1ccc2oc(=O)n(C)c2c1 [Compound I-72, N2-((4-methylsulfonylamino)phenyl)-N4-(3-methyl-2-oxo-2,3-dihydrobenzo[d]oxazol-5-yl)-5-methylpyrimidine-2,4-diamine] | < 500 |
| Cc1cnc(Nc2cccc(NS(C)(=O)=O)c2)nc1Nc1ccc2c(c1)oc(=O)n2C [Compound I-73, N2-((3-methylsulfonylamino)phenyl)-N4-(3-methyl-2-oxo-2,3-dihydrobenzo[d]oxazol-6-yl)-5-methylpyrimidine-2,4-diamine] | < 500 |
| Cc1cnc(Nc2ccc(NS(C)(=O)=O)cc2)nc1Nc1ccc2c(c1)oc(=O)n2C [Compound I-74, N2-((4-methylsulfonylamino)phenyl)-N4-(3-methyl-2-oxo-2,3-dihydrobenzo[d]oxazol-6-yl)-5-methylpyrimidine-2,4-diamine] | < 500 |
| Cn1c(=O)oc2ccc(Nc3nc(Nc4cccc(S(N)(=O)=O)c4)ncc3F)cc21 [Compound I-75, N2-((3-aminosulfonyl)phenyl)-N4-(3-methyl-2-oxo-2,3-dihydrobenzo[d]oxazol-5-yl)-5-fluoropyrimidine-2,4-diamine] | < 500 |
| Cn1c(=O)oc2ccc(Nc3nc(Nc4ccc(S(N)(=O)=O)cc4)ncc3F)cc21 [Compound I-76, N2-((4-aminosulfonyl)phenyl)-N4-(3-methyl-2-oxo-2,3-dihydrobenzo[d]oxazol-5-yl)-5-fluoropyrimidine-2,4-diamine] | 500 to 5000 |
| Cn1c(=O)oc2ccc(Nc3nc(Nc4cccc(S(C)(=O)=O)c4)ncc3F)cc21 [Compound I-77, N2-((3-methylsulfonyl)phenyl)-N4-(3-methyl-2-oxo-2,3-dihydrobenzo[d]oxazol-5-yl)-5-fluoropyrimidine-2,4-diamine] | 500 to 5000 |
| Cn1c(=O)oc2ccc(Nc3nc(Nc4ccc(S(C)(=O)=O)cc4)ncc3F)cc21 [Compound I-78, N2-((4-methylsulfonyl)phenyl)-N4-(3-methyl-2-oxo-2,3-dihydrobenzo[d]oxazol-5-yl)-5-fluoropyrimidine-2,4-diamine] | 500 to 5000 |
| Cn1c(=O)oc2ccc(Nc3nc(Nc4cccc(NS(C)(=O)=O)c4)ncc3F)cc21 [Compound I-79, N2-((3-methylsulfonylamino)phenyl)-N4-(3-methyl-2-oxo-2,3-dihydrobenzo[d]oxazol-5-yl)-5-fluoropyrimidine-2,4-diamine] | 500 to 5000 |
| Cn1c(=O)oc2ccc(Nc3nc(Nc4ccc(NS(C)(=O)=O)cc4)ncc3F)cc21 [Compound I-80, N2-((4-methylsulfonylamino)phenyl)-N4-(3-methyl-2-oxo-2,3-dihydrobenzo[d]oxazol-5-yl)-5-fluoropyrimidine-2,4-diamine] | < 500 |
| Cc1ccc(Nc2ncc(C)c(Nc3ccc4oc(=O)n(C)c4c3)n2)cc1NS(C)(=O)=O [Compound I-82, N2-((3-methylsulfonylamino-4-methyl)phenyl)-N4-(3-methyl-2-oxo-2,3-dihydrobenzo[d]oxazol-5-yl)-5-methylpyrimidine-2,4-diamine] | < 500 |
| Cc1ccc(Nc2ncc(C)c(Nc3ccc4c(c3)oc(=O)n4C)n2)cc1NS(C)(=O)=O [Compound I-83, N2-((3-methylsulfonylamino-4-methyl)phenyl)-N4-(3-methyl-2-oxo-2,3-dihydrobenzo[d]oxazol-6-yl)-5-methylpyrimidine-2,4-diamine] | < 500 |
| Cc1ccc(Nc2ncc(F)c(Nc3ccc4oc(=O)[nH]c4c3)n2)cc1NS(C)(=O)=O [Compound I-84, N2-((3-methylsulfonylamino-4-methyl)phenyl)-N4-(2-oxo-2,3-dihydrobenzo[d]oxazol-5-yl)-5-fluoropyrimidine-2,4-diamine] | < 500 |
| Cc1ccc(Nc2ncc(F)c(Nc3ccc4oc(=O)n(C)c4c3)n2)cc1NS(C)(=O)=O [Compound I-85, N2-((3-methylsulfonylamino-4-methyl)phenyl)-N4-(3-methyl-2-oxo-2,3-dihydrobenzo[d]oxazol-5-yl)-5-fluoropyrimidine-2,4-diamine] | 500 to 5000 |
| Cc1ccc(Nc2ncc(F)c(Nc3ccc4c(c3)oc(=O)n4C)n2)cc1NS(C)(=O)=O [Compound I-86, N2-((3-methylsulfonylamino-4-methyl)phenyl)-N4-(3-methyl-2-oxo-2,3-dihydrobenzo[d]oxazol-6-yl)-5-fluoropyrimidine-2,4-diamine] | > 10000 |
| Cc1cnc(Nc2ccc(F)c(NS(C)(=O)=O)c2)nc1Nc1ccc2oc(=O)[nH]c2c1 [Compound I-87, N2-((4-fluoro-3-methylsulfonylamino)phenyl)-N4-(2-oxo-2,3-dihydrobenzo[d]oxazol-5-yl)-5-methylpyrimidine-2,4-diamine] | < 500 |
